Assay results reported in ChEMBL document CHEMBL5518180, “Design, synthesis, and biological evaluation of harmine derivatives as topoisomerase I inhibitors for cancer treatment” (Eur J Med Chem, 2024).
Active and inactive are the calls of the source. The calls are words filed in the database; no cut-off is given here.

Legend:
MCF7 [1] = assay: Antiproliferative activity against human MCF7 cells assessed as inhibition of cell growth incubated for 48 hrs by MTT assay; type: functional, cell-based; details: MCF7, 48 h
HepG2 = assay: Antiproliferative activity against human HepG2 cells assessed as inhibition of cell growth incubated for 48 hrs by MTT assay; type: functional, cell-based; details: HepG2, 48 h
A549 = assay: Antiproliferative activity against human A549 cells assessed as inhibition of cell growth incubated for 48 hrs by MTT assay; type: functional, cell-based; details: A549, 48 h
PC-3 = assay: Antiproliferative activity against human PC-3 cells assessed as inhibition of cell growth incubated for 48 hrs by MTT assay; type: functional, cell-based; details: PC-3, 48 h
MCF7 [2] = assay: Inhibition of colony formation in human MCF7 cells at 0.075 uM incubated for 2 weeks by crystal violet staining based analysis; type: functional, cell-based
MCF7 [3] = assay: Antimigratory activity against human MCF7 cells assessed as wound healing rate at 0.125 uM incubated for 24 hrs by inverted fluorescence microscopic analysis (reference value: 42.5 %); type: functional
MCF7 [4] = assay: Antimigratory activity against human MCF7 cells assessed as reduction in penetration of cells in transwell membrane at 0.125 to 0.5 uM incubated for 24 hrs by crystal violet staining based inverted fluorescence microscopic analysis; type: functional, cell-based; details: dose 0.125-0.5 µM
MCF7 [5] = assay: Antimigratory activity against human MCF7 cells assessed as decrease in MMP-2 expression incubated for 24 hrs by Western blotting analysis; type: functional, cell-based; details: dose 125-500 nM
MCF7 [6] = assay: Induction of apoptosis in human MCF7 cells assessed as viable cells at 0.1 uM incubated for 24 hrs by Annexin V-FITC/Propidium Iodide staining based flow cytometry analysis (reference value: 91.8 %); type: functional; details: read-out: Activity
MCF7 [7] = assay: Induction of apoptosis in human MCF7 cells assessed as early apoptotic cells at 0.1 uM incubated for 24 hrs by Annexin V-FITC/Propidium Iodide staining based flow cytometry analysis (reference value: 2.54 %); type: functional
MCF7 [8] = assay: Induction of apoptosis in human MCF7 cells assessed as necrotic cells at 0.1 uM incubated for 24 hrs by Annexin V-FITC/Propidium Iodide staining based flow cytometry analysis (reference value: 0.082 %); type: functional
MCF7 [9] = assay: Induction of apoptosis in human MCF7 cells assessed as viable cells at 0.5 uM incubated for 24 hrs by Annexin V-FITC/Propidium Iodide staining based flow cytometry analysis (reference value: 91.8 %); type: functional; details: read-out: Activity
MCF7 [10] = assay: Induction of apoptosis in human MCF7 cells assessed as early apoptotic cells at 0.5 uM incubated for 24 hrs by Annexin V-FITC/Propidium Iodide staining based flow cytometry analysis (reference value: 2.54 %); type: functional
MCF7 [11] = assay: Induction of apoptosis in human MCF7 cells assessed as late apoptotic cells at 0.5 uM incubated for 24 hrs by Annexin V-FITC/Propidium Iodide staining based flow cytometry analysis (reference value: 5.58 %); type: functional
MCF7 [12] = assay: Induction of apoptosis in human MCF7 cells assessed as necrotic cells at 0.5 uM incubated for 24 hrs by Annexin V-FITC/Propidium Iodide staining based flow cytometry analysis (reference value: 0.082 %); type: functional
MCF7 [13] = assay: Induction of apoptosis in human MCF7 cells assessed as viable cells at 2 uM incubated for 24 hrs by Annexin V-FITC/Propidium Iodide staining based flow cytometry analysis (reference value: 91.8 %); type: functional; details: read-out: Activity
MCF7 [14] = assay: Induction of apoptosis in human MCF7 cells assessed as early apoptotic cells at 2 uM incubated for 24 hrs by Annexin V-FITC/Propidium Iodide staining based flow cytometry analysis (reference value: 2.54 %); type: functional
MCF7 [15] = assay: Induction of apoptosis in human MCF7 cells assessed as late apoptotic cells at 2 uM incubated for 24 hrs by Annexin V-FITC/Propidium Iodide staining based flow cytometry analysis (reference value: 5.58 %); type: functional
MCF7 [16] = assay: Induction of apoptosis in human MCF7 cells assessed as necrotic cells at 2 uM incubated for 24 hrs by Annexin V-FITC/Propidium Iodide staining based flow cytometry analysis (reference value: 0.082 %); type: functional
MCF7 [17] = assay: Induction of apoptosis in human MCF7 cells assessed as increase in Bax protein expression incubated for 24 hrs by Western blotting analysis; type: functional, cell-based; details: dose 0.1-2 µM
MCF7 [18] = assay: Induction of apoptosis in human MCF7 cells assessed as increase in phosphorylated Bim protein expression incubated for 24 hrs by Western blotting analysis; type: functional, cell-based; details: dose 0.1-2 µM
MCF7 [19] = assay: Induction of DNA double-strand breaks in human MCF7 cells assessed as increase in gamma-H2AX incubated for 48 hrs by DAPI staining based confocal laser scanning microscopy; type: functional, cell-based; details: dose 0.25-1 µM
MCF7 [20] = assay: Induction of DNA double-strand breaks in human MCF7 cells assessed as increase in gamma-H2AX protein expression incubated for 48 hrs by Western blotting analysis; type: functional, cell-based; details: dose 0.25-1 µM
4T1 [21] = assay: Antitumor activity against mouse 4T1 cells transplanted in BALB/c mouse assessed as tumor growth inhibition rate at 5 mg/kg, ip administered for 14 days relative to control; type: functional; details: 4T1, 336 h, time 14 day, read-out: TGI
4T1 [22] = assay: Antitumor activity against mouse 4T1 cells transplanted in BALB/c mouse assessed as tumor growth inhibition administered for 14 days; type: functional; details: dose 5-20 mg/kg, route ip, time 14.0 day
4T1 [23] = assay: Antitumor activity against mouse 4T1 cells transplanted in BALB/c mouse assessed as inhibition of tumor volume at 10 mg/kg, ip administered for 14 days; type: functional, organism-based; details: time 14.0 day
[24] = Toxicity in BALB/c mouse transplanted with […] cells assessed as liver damage at 5 to 20 mg/kg, ip administered for 14 days by hematoxylin and eosin staining based analysis; type: organism-based; details: in vivo, 336 h, dose 5-20 mg/kg, time 14 day
[25] = Toxicity in BALB/c mouse transplanted with […] cells assessed as spleen damage at 5 to 20 mg/kg, ip administered for 14 days by hematoxylin and eosin staining based analysis; type: organism-based; details: in vivo, 336 h, dose 5-20 mg/kg, time 14 day
[26] = Toxicity in BALB/c mouse transplanted with […] cells assessed as lung damage at 5 to 20 mg/kg, ip administered for 14 days by hematoxylin and eosin staining based analysis; type: organism-based; details: in vivo, 336 h, dose 5-20 mg/kg, time 14 day
[27] = Toxicity in BALB/c mouse transplanted with […] cells assessed as kidney damage at 5 to 20 mg/kg, ip administered for 14 days by hematoxylin and eosin staining based analysis; type: organism-based; details: in vivo, 336 h, dose 5-20 mg/kg, time 14 day
[28] = Toxicity in BALB/c mouse transplanted with […] cells assessed as change in serum alanine aminotransferase level at 5 to 20 mg/kg, ip administered for 14 days by biochemical analysis; type: organism-based; details: in vivo, 336 h, dose 5-20 mg/kg, time 14 day
[29] = Toxicity in BALB/c mouse transplanted with […] cells assessed as change in serum aspartate aminotransferase level at 5 to 20 mg/kg, ip administered for 14 days by biochemical analysis; type: organism-based; details: in vivo, 336 h, dose 5-20 mg/kg, time 14 day
[30] = Toxicity in BALB/c mouse transplanted with […] cells assessed as change in creatine kinase level at 5 to 20 mg/kg, ip administered for 14 days by biochemical analysis; type: organism-based; details: in vivo, 336 h, dose 5-20 mg/kg, time 14 day
[31] = Toxicity in BALB/c mouse transplanted with […] cells assessed as change in lactate dehydrogenase level at 5 to 20 mg/kg, ip administered for 14 days by biochemical analysis; type: organism-based; details: in vivo, 336 h, dose 5-20 mg/kg, time 14 day
4T1 [32] = assay: Antitumor activity against mouse 4T1 cells transplanted in BALB/c mouse assessed as tumor growth inhibition rate at 20 mg/kg, ip administered for 14 days relative to control; type: functional; details: 4T1, 336 h, time 14 day, read-out: TGI

SMILES: O=C(/C=C/c1ccc(Cl)c([N+](=O)[O-])c1)c1nccc2c1[nH]c1ccccc12
- IC50 (MCF7 [1]): 340 nM
- IC50 (HepG2): 1610 nM
- IC50 (A549): 2020 nM
- IC50 (PC-3): 1170 nM
- inhibition (MCF7 [2]): Active
- Activity (MCF7 [3]): 15.3%
- Activity (MCF7 [4]): Active
- Activity (MCF7 [5]): Dose-Dependent Effect
- viability at 0.1 µM (MCF7 [6]): 85.3%
- Activity (MCF7 [7]): 7.52%
- Activity (MCF7 [8]): 0.12%
- viability at 0.5 µM (MCF7 [9]): 71%
- Activity (MCF7 [10]): 20.1%
- Activity (MCF7 [11]): 8.65%
- Activity (MCF7 [12]): 0.27%
- viability at 2 µM (MCF7 [13]): 60.6%
- Activity (MCF7 [14]): 7.59%
- Activity (MCF7 [15]): 30.8%
- Activity (MCF7 [16]): 0.93%
- Activity (MCF7 [17]): Dose-Dependent Effect
- Activity (MCF7 [18]): Dose-Dependent Effect
- Activity (MCF7 [19]): Dose-Dependent Effect
- Activity (MCF7 [20]): Dose-Dependent Effect
- inhibition in vivo at 5 mg/kg (4T1 [21]): 21.7%
- TGI (4T1 [22]): Dose-Dependent Effect
- Activity (4T1 [23]): Active
- Activity [24]: Non-Toxic
- Activity [25]: Non-Toxic
- Activity [26]: Non-Toxic
- Activity [27]: Non-Toxic
- Activity [28]: Non-Toxic
- Activity [29]: Non-Toxic
- Activity [30]: Non-Toxic
- Activity [31]: Non-Toxic
- inhibition in vivo at 20 mg/kg (4T1 [32]): 63.9%
